In the supplement of paper PMC10331698:
± gives the standard deviation of the averaged measurements.

Tests used:
Test in all cases: level (log10 ratio to DMSO vehicle control); higher = higher biomarker level / cell amount than vehicle control
[1] = compound: FC(F)(F)C(F)(F)C(F)(F)C(F)(F)CCI [1H,1H,2H,2H-Perfluorohexyl iodide]; details: in DMSO
Procedure: (§1)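 BioMAP Diversity Plus panel of 12 human primary cell co-culture systems (3C, 4H, LPS, SAg, BT, BF4T, BE3C, CASM3C, HDF3CGF, KF3CT, MyoF, Mphg). Compounds were added 1 h before stimulation and left for 24 h (MyoF 48 h; BT 72 h for soluble read-outs or 6 d for IgG). Biomarkers were read by ELISA, cytotoxicity by SRB, PBMC viability and proliferation by Alamar Blue. Each well value was divided by the mean of 8 DMSO control wells on the same plate and log10 transformed; duplicate blinded samples were tested at 4 concentrations.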

[2] = compound: FC(F)(I)C(F)(F)C(F)(F)C(F)(F)C(F)(F)C(F)(F)I [1,6-Diiodoperfluorohexane]; details: 6700 nM; in DMSO
Procedure: as §1

Perfluoropinacol = compound: OC(C(F)(F)F)(C(F)(F)F)C(O)(C(F)(F)F)C(F)(F)F [Perfluoropinacol]; details: in DMSO
Procedure: as §1

[3] = compound: Cc1ccc(S(=O)(=O)OCC(F)(F)C(F)(F)C(F)(F)C(F)(F)C(F)(F)C(F)F)cc1 [1H,1H,7H-Perfluoroheptyl 4-methylbenzenesulfonate]; details: in DMSO
Procedure: as §1

[4] = compound: OCCCC(F)(F)C(F)(F)C(F)(F)C(F)(F)C(F)(F)C(F)(F)C(F)(F)C(F)(F)F [3-(Perfluorooctyl)propanol]; details: 6700 nM; in DMSO
Procedure: as §1

[5] = compound: C=CC(=O)OCC(F)(F)C(F)(F)C(F)(F)C(F)(F)C(F)(F)C(F)(F)C(F)(F)C(F)F [1H,1H,9H-Perfluorononyl acrylate]; details: in DMSO
Procedure: as §1

[6] = compound: OCC(F)(F)C(F)(F)C(F)(F)C(F)(F)C(F)(F)C(F)(F)F [6:1 Fluorotelomer alcohol]; details: in DMSO
Procedure: as §1

[7] = compound: C=CC(=O)OCC(F)(F)C(F)(F)C(F)(F)C(F)(F)COC(=O)C=C [1H,1H,6H,6H-Perfluorohexane-1,6-diol diacrylate]; details: 6700 nM; in DMSO
Procedure: as §1

[8] = compound: FC(F)(F)COC(OCC(F)(F)F)OCC(F)(F)F [tris(Trifluoroethoxy)methane]; details: in DMSO
Procedure: as §1

Test System	level (log10) ([1]; 6700 nM)	level (log10) ([1]; 20000 nM)	level (log10) ([1]; 60000 nM)	level (log10) [2]	level (log10) (Perfluoropinacol; 6700 nM)	level (log10) (Perfluoropinacol; 20000 nM)	level (log10) ([3]; 6700 nM)	level (log10) ([3]; 20000 nM)	level (log10) ([3]; 60000 nM)	level (log10) [4]	level (log10) ([5]; 6700 nM)	level (log10) ([5]; 20000 nM)	level (log10) ([5]; 60000 nM)	level (log10) ([6]; 6700 nM)	level (log10) ([6]; 20000 nM)	level (log10) ([6]; 60000 nM)	level (log10) [7]	level (log10) ([8]; 6700 nM)	level (log10) ([8]; 20000 nM)	level (log10) ([8]; 60000 nM)
CASM3C:PAI-I	0.0135 ± 0.022	0.0165 ± 0.022	0.0125 ± 0.044	0.011	-0.006 ± 0.0071	-0.0075 ± 0.0064	-0.004 ± 0.0028	-0.007 ± 0.0085	-0.008 ± 0.016	-0.0165 ± 0.0092	0.007 ± 0.0057	0.0045 ± 0.0035	-0.005 ± 0.028	-0.0035 ± 0.005	-0.0015 ± 0.00071	0.003 ± 0.0085	0.0005 ± 0.0021	-0.003 ± 0.03	0.0015 ± 0.013	0.007 ± 0.0057
KF3CT:MMP-9	0.0055 ± 0.0078	0.0035 ± 0.00071	0.0115 ± 0.005	-0.136	0.01 ± 0.018	-0.0245 ± 0.029	-0.014 ± 0.031	-0.073 ± 0.025	-0.0915 ± 0.03	-0.053 ± 0.0085	-0.013 ± 0.014	-0.0085 ± 0.0035	-0.0285 ± 0.04	-0.018 ± 0.0028	-0.0315 ± 0.0021	0.002 ± 0.0028	-0.035 ± 0.064	-0.0015 ± 0.016	-0.0105 ± 0.00071	0.004 ± 0.013
BE3C:SRB	-0.003 ± 0.0028	-0.0035 ± 0.00071	0.002 ± 0.011	-0.005	-0.0115 ± 0.0035	-0.0285 ± 0.00071	-0.006 ± 0.0028	-0.008 ± 0.0042	-0.0145 ± 0.0035	-0.002 ± 0.0028	-0.004	0.0005 ± 0.005	0.001 ± 0.016	-0.0015 ± 0.005	-0.0055 ± 0.0021	0.002 ± 0.011	-0.006 ± 0.0028	-0.002 ± 0.0028	0.005 ± 0.0057	-0.002 ± 0.0085
KF3CT:CXCL10/IP-10	0.012 ± 0.045	0.0205 ± 0.028	0.017 ± 0.05	-0.005	0.0025 ± 0.0035	-0.0205 ± 0.0064	-0.009 ± 0.014	-0.0195 ± 0.0078	-0.016 ± 0.0099	-0.053 ± 0.02	-0.003 ± 0.024	-0.01 ± 0.017	-0.015 ± 0.0099	0.0155 ± 0.0035	0.0055 ± 0.015	0.011	-0.0365 ± 0.005	0.005 ± 0.0042	-0.0045 ± 0.0064	-0.0025 ± 0.005
HDF3CGF:CD54/ICAM-1	-0.023 ± 0.013	-0.0005 ± 0.005	-0.0085 ± 0.016	-0.343	0.012 ± 0.011	0.005 ± 0.018	0.0005 ± 0.016	0.0385 ± 0.042	0.026 ± 0.055	-0.113 ± 0.15	-0.021 ± 0.018	-0.0435 ± 0.00071	-0.0765 ± 0.042	-0.0075 ± 0.011	0.008 ± 0.02	0.0075 ± 0.011	-0.175 ± 0.038	-0.0195 ± 0.00071	-0.013 ± 0.034	-0.008 ± 0.0057
MyoF:bFGF	0.0095 ± 0.021	0.0205 ± 0.026	0.0285 ± 0.042	-0.127	-0.0075 ± 0.012	-0.0225 ± 0.0092	-0.0005 ± 0.0021	0.012 ± 0.0071	0.009 ± 0.017	-0.034 ± 0.017	0.012 ± 0.0057	0.0155 ± 0.021	0.027 ± 0.0014	-0.001 ± 0.0014	0.0005 ± 0.013	0.006 ± 0.011	0.0155 ± 0.0064	-0.004 ± 0.0042	-0.0155 ± 0.011	-0.006 ± 0.0028
lMphg:CD106/VCAM-1	0.0015 ± 0.018	-0.0005 ± 0.016	0.009 ± 0.013	-0.025	0.0045 ± 0.0064	-0.077 ± 0.023	-0.0105 ± 0.029	0.0045 ± 0.0021	0 ± 0.0071	0.001 ± 0.0099	-0.03	-0.029 ± 0.0099	-0.0405 ± 0.0092	0.0035 ± 0.021	0.0035 ± 0.032	0.0115 ± 0.04	-0.0445 ± 0.018	0.0065 ± 0.0035	0.023 ± 0.0099	-0.0145 ± 0.0092
BE3C:MMP-1	0 ± 0.023	0.017 ± 0.021	0.0975 ± 0.023	0.014	0.0275 ± 0.0021	-0.003 ± 0.0057	0.044 ± 0.0099	0.051 ± 0.038	0.094 ± 0.061	0.064 ± 0.0042	-0.023 ± 0.013	-0.009 ± 0.027	0.038 ± 0.064	-0.0115 ± 0.016	0 ± 0.0014	0.042 ± 0.013	-0.0035 ± 0.011	0.004 ± 0.059	0.004 ± 0.025	0.01 ± 0.0099
KF3CT:PAI-I	-0.0025 ± 0.023	-0.001 ± 0.013	-0.0225 ± 0.015	-0.117	0.001 ± 0.0042	-0.0435 ± 0.012	-0.016 ± 0.02	0.0005 ± 0.0078	-0.032 ± 0.0042	-0.104 ± 0.077	-0.017	-0.023 ± 0.042	-0.0465 ± 0.022	-0.0005 ± 0.011	-0.001 ± 0.011	0.008 ± 0.0099	0.048 ± 0.0071	-0.0035 ± 0.0035	-0.006 ± 0.0014	0.0025 ± 0.0092
MyoF:PAI-I	0.0085 ± 0.0064	-0.003 ± 0.0071	0.0085 ± 0.03	-0.053	-0.0215 ± 0.012	-0.0025 ± 0.00071	-0.007 ± 0.0085	-0.0085 ± 0.013	-0.019 ± 0.013	-0.0075 ± 0.021	-0.0225 ± 0.0078	-0.0345 ± 0.047	-0.045 ± 0.0099	0.0015 ± 0.0078	-0.006 ± 0.0042	0.0025 ± 0.019	0 ± 0.042	-0.0045 ± 0.018	-0.0035 ± 0.00071	0.008 ± 0.0042
3C:CD141/Thrombomodulin	-0.041 ± 0.051	-0.0175 ± 0.052	0.0165 ± 0.059	-0.003	-0.0165 ± 0.0021	-0.033 ± 0.034	0.008 ± 0.0028	0.021 ± 0.0014	0.0395 ± 0.00071	-0.0055 ± 0.019	-0.042 ± 0.0028	-0.076 ± 0.028	-0.114 ± 0.016	-0.0155 ± 0.018	-0.0285 ± 0.0092	-0.005 ± 0.02	-0.079 ± 0.021	-0.012 ± 0.061	-0.038 ± 0.047	-0.0425 ± 0.049
lMphg:CD69	-0.019	-0.013 ± 0.013	0.043 ± 0.021	-0.01	-0.124 ± 0.026	-0.256 ± 0.058	-0.007 ± 0.016	-0.048 ± 0.027	-0.039 ± 0.062	0.018 ± 0.04	-0.048 ± 0.0028	-0.0265 ± 0.025	-0.0255 ± 0.03	-0.007 ± 0.047	-0.038 ± 0.052	-0.055 ± 0.073	-0.06 ± 0.0042	0.0225 ± 0.05	0.005 ± 0.035	0.0095 ± 0.042
MyoF:TIMP-1	0.019 ± 0.041	0.024 ± 0.083	0.021 ± 0.12	-0.047	0.006 ± 0.016	-0.021 ± 0.0028	-0.0255 ± 0.044	-0.0575 ± 0.069	-0.0375 ± 0.07	-0.0115 ± 0.046	-0.0205 ± 0.0078	-0.015 ± 0.0085	-0.008 ± 0.03	0.0125 ± 0.025	0.0145 ± 0.019	0.03 ± 0.013	-0.0015 ± 0.016	-0.0325 ± 0.032	-0.05 ± 0.055	-0.076 ± 0.0028
